{"source": "paper PMC12766724", "about": "“Synthesis, Anthelmintic Activity, and Mechanism of Action of 5‑Aryl‑1H‑indoles” (Journal of Agricultural and Food Chemistry, 2025)", "format_in_all_cases": "in vivo, Caenorhabditis elegans", "key": {"[1]": {"tested_on": "C. elegans wild-type and MCII mutants", "test": "Recovery of pretreated worms on WMicrotracker ONE", "settings": "5 or 10 μM for 72 h, then wash-out and recovery", "procedure": "(§1) Briefly, for evaluation of the acute effect of the compounds, age-synchronized young adults of each strain, kept in S complete medium supplemented with E. coli OP50 (3 mg/mL, fresh weight), were transferred onto microtiter plates (96-well, U bottom), and their initial motility was measured for 30 min. […] Afterward, the compounds were washed away, and worms, supplemented with fresh liquid media and food, were distributed onto 96-well plates and allowed to recover. Their activity was measured using WMicrotracker ONE at the indicated time points.\nC. elegans L1 larvae were exposed to 5 or 10 μM of the compounds for 72 h, after which the compounds were washed away, and the recovery of the nematodes was evaluated using WMicrotracker."}, "[2]": {"tested_on": "mitochondrial membrane potential of C. elegans young adults", "test": "Mitochondrial membrane potential measurement", "settings": "100 μM; 24 h", "procedure": "After 24 h, the compounds were washed away. Then, the mitochondrial membrane potential was measured using a specialized fluorescent dye (kit MAK147, Sigma-Aldrich). The kit was used according to the manufacturer’s instructions with modified incubation temperature and time (20 °C, 4 h) to account for the fact that living intact worms were used instead of cell cultures. , Dyed worms (approximately 200 per well) were distributed onto a black 96-well plate, and the fluorescence was measured using a Tecan Infinite 200 Pro plate reader.\nDetermining the mechanism of action of compounds is always challenging; however, the nature of their effect, as well as the structural similarity to compounds with known properties, can provide useful insights. One of our hypotheses was that the compounds might interfere with energy production. We based this assumption on the behavior of compound-treated worms (delayed development, lower fecundity, and relatively rapid decrease in motility rates but not necessarily death). Impaired mitochondrial function would be accompanied by a decrease in mitochondrial membrane potential (MMP)."}, "[3]": {"tested_on": "C. elegans wild-type N2", "test": "Acute motility of young adults on WMicrotracker ONE", "settings": "50 μM; 24 h", "procedure": "as §1, with “The effect of compounds on C. elegans N2 and SDH mutant strains was measured in a similar manner. Briefly,” for “Briefly,”\n(§2) To experimentally support this promising initial finding, we tested the effect of i-19 against several C. elegans MCII mutant strains. These nematodes carry point mutations that result in amino acid changes in regions of subunits SDHC and SDHD that contribute to the formation of the ubiquinone-binding pocket, thereby influencing its shape and the ability of inhibitors to interact with the protein. […] The compounds were tested in multiple setups. At first, young adults were exposed to higher doses (100, 50, and 10 μM) of the compounds for up to 48 h, and changes in motility were evaluated using WMicrotracker. For both compounds, we observed a less pronounced decrease in movement rates of MCII mutants compared to wild-type worms, in both a dose- and time-dependent manner (Figure )."}, "[4]": {"tested_on": "C. elegans MCII mutant RP2699", "test": "Acute motility of young adults on WMicrotracker ONE", "settings": "50 μM; 24 h", "procedure": "as §1, with “The effect of compounds on C. elegans N2 and SDH mutant strains was measured in a similar manner. Briefly,” for “Briefly,”\nas §2"}, "[5]": {"tested_on": "C. elegans MCII mutant RP2700", "test": "Acute motility of young adults on WMicrotracker ONE", "settings": "50 μM; 24 h", "procedure": "as §1, with “The effect of compounds on C. elegans N2 and SDH mutant strains was measured in a similar manner. Briefly,” for “Briefly,”\nas §2"}, "[6]": {"tested_on": "C. elegans MCII mutant RP2702", "test": "Acute motility of young adults on WMicrotracker ONE", "settings": "50 μM; 24 h", "procedure": "as §1, with “The effect of compounds on C. elegans N2 and SDH mutant strains was measured in a similar manner. Briefly,” for “Briefly,”\nas §2"}, "[7]": {"tested_on": "C. elegans complex II mutant RP2702", "test": "Scoring of developmental rates, L1 exposed 5 days", "description": "(§3) Dead or mostly immobile worms, arrested at the L1 stage, received a score of 1. Populations with severely delayed development were scored as 2. More developmentally advanced, but still obviously delayed worms were given the score of 3. Adult worms that produce a noticeably lower number of progeny received a score of 4. Healthy worms that reproduce normally (i.e., hundreds of eggs and larvae are present) were scored as 5 (see Figure C for representative images). In a typical, correctly prepared experiment, vehicle-treated populations should receive a score of 5, while worms treated with ivermectin (positive control) should receive a score of 1. […]"}, "[8]": {"tested_on": "C. elegans complex II mutant RP2699", "test": "Scoring of developmental rates, L1 exposed 5 days", "description": "as §3"}, "[9]": {"tested_on": "C. elegans complex II mutant RP2700", "test": "Scoring of developmental rates, L1 exposed 5 days", "description": "as §3"}}, "data": [{"compound": "Clc1ccc(-c2ccc3[nH]ccc3c2)cc1", "note": "[i-19]", "values": [{"measurement": "resistance of MCII mutants compared to wild-type", "setting": "[1]", "result": "increased resistance of the MCII mutants"}, {"measurement": "MMP signal lower than in vehicle-treated control animals", "setting": "[2]", "result": "approximately 80%"}, {"measurement": "decrease of mean activity counts", "setting": "[3]", "result": 89, "unit": "%"}, {"measurement": "decrease of mean activity counts", "setting": "[4]", "result": 46, "unit": "%"}, {"measurement": "decrease of mean activity counts", "setting": "[5]", "result": 32, "unit": "%"}, {"measurement": "decrease of mean activity counts", "setting": "[6]", "result": 70, "unit": "%"}, {"measurement": "mean score (1-5)", "setting": "[7]; 1.336 µM", "result": 5}, {"measurement": "mean score (1-5)", "setting": "[7]; 1.782 µM", "result": 5}, {"measurement": "mean score (1-5)", "setting": "[7]; 2.376 µM", "result": 5}, {"measurement": "mean score (1-5)", "setting": "[7]; 3.168 µM", "result": 5}, {"measurement": "mean score (1-5)", "setting": "[7]; 4.224 µM", "result": 4.889}, {"measurement": "mean score (1-5)", "setting": "[7]; 5.631 µM", "result": 4.889}, {"measurement": "mean score (1-5)", "setting": "[7]; 7.509 µM", "result": 5}, {"measurement": "mean score (1-5)", "setting": "[7]; 10.011 µM", "result": 4.444}, {"measurement": "mean score (1-5)", "setting": "[7]; 13.348 µM", "result": 4.889}, {"measurement": "mean score (1-5)", "setting": "[7]; 17.798 µM", "result": 4.667}, {"measurement": "mean score (1-5)", "setting": "[7]; 23.731 µM", "result": 3.889}, {"measurement": "mean score (1-5)", "setting": "[7]; 31.641 µM", "result": 1.111}, {"measurement": "mean score (1-5)", "setting": "[7]; 42.188 µM", "result": 1}, {"measurement": "mean score (1-5)", "setting": "[7]; 56.25 µM", "result": 1}, {"measurement": "mean score (1-5)", "setting": "[7]; 75 µM", "result": 1}, {"measurement": "mean score (1-5)", "setting": "[7]; 100 µM", "result": 1}, {"measurement": "mean score (1-5)", "setting": "[8]; 1.336 µM", "result": 4.667}, {"measurement": "mean score (1-5)", "setting": "[8]; 1.782 µM", "result": 4.667}, {"measurement": "mean score (1-5)", "setting": "[8]; 2.376 µM", "result": 4.556}, {"measurement": "mean score (1-5)", "setting": "[8]; 3.168 µM", "result": 4.444}, {"measurement": "mean score (1-5)", "setting": "[8]; 4.224 µM", "result": 4.556}, {"measurement": "mean score (1-5)", "setting": "[8]; 5.631 µM", "result": 4.333}, {"measurement": "mean score (1-5)", "setting": "[8]; 7.509 µM", "result": 4.444}, {"measurement": "mean score (1-5)", "setting": "[8]; 10.011 µM", "result": 4.333}, {"measurement": "mean score (1-5)", "setting": "[8]; 13.348 µM", "result": 4.111}, {"measurement": "mean score (1-5)", "setting": "[8]; 17.798 µM", "result": 3.111}, {"measurement": "mean score (1-5)", "setting": "[8]; 23.731 µM", "result": 2.778}, {"measurement": "mean score (1-5)", "setting": "[8]; 31.641 µM", "result": 2.111}, {"measurement": "mean score (1-5)", "setting": "[8]; 42.188 µM", "result": 1}, {"measurement": "mean score (1-5)", "setting": "[8]; 56.25 µM", "result": 1}, {"measurement": "mean score (1-5)", "setting": "[8]; 75 µM", "result": 1}, {"measurement": "mean score (1-5)", "setting": "[8]; 100 µM", "result": 1}, {"measurement": "mean score (1-5)", "setting": "[9]; 1.336 µM", "result": 4.778}, {"measurement": "mean score (1-5)", "setting": "[9]; 1.782 µM", "result": 4.778}, {"measurement": "mean score (1-5)", "setting": "[9]; 2.376 µM", "result": 4.667}, {"measurement": "mean score (1-5)", "setting": "[9]; 3.168 µM", "result": 4.889}, {"measurement": "mean score (1-5)", "setting": "[9]; 4.224 µM", "result": 4.778}, {"measurement": "mean score (1-5)", "setting": "[9]; 5.631 µM", "result": 4.778}, {"measurement": "mean score (1-5)", "setting": "[9]; 7.509 µM", "result": 4.667}, {"measurement": "mean score (1-5)", "setting": "[9]; 10.011 µM", "result": 4.667}, {"measurement": "mean score (1-5)", "setting": "[9]; 13.348 µM", "result": 4.333}, {"measurement": "mean score (1-5)", "setting": "[9]; 17.798 µM", "result": 3.667}, {"measurement": "mean score (1-5)", "setting": "[9]; 23.731 µM", "result": 3.444}, {"measurement": "mean score (1-5)", "setting": "[9]; 31.641 µM", "result": 1.111}, {"measurement": "mean score (1-5)", "setting": "[9]; 42.188 µM", "result": 1}, {"measurement": "mean score (1-5)", "setting": "[9]; 56.25 µM", "result": 1}, {"measurement": "mean score (1-5)", "setting": "[9]; 75 µM", "result": 1}, {"measurement": "mean score (1-5)", "setting": "[9]; 100 µM", "result": 1}]}]}
